Key:
[1] = tested on: BT474 breast tumor cell line; assay: Methylene blue growth inhibition assay, BT474; assay type: cell-based; conditions: Homo sapiens, BT-474, 72 h; BT474, 3 days; read-out: Cell Proliferation BT474, IC50
Experimental: (§1) Human breast (BT474), head and neck (HN5) and gastric tumor (N87) cell lines were cultured in low glucose DMEM (Life Technologies 12320–032) containing 10% fetal bovine serum (FBS) at 37° C. in a humidified 10% CO2, 90% air incubator. The SV40 transformed human mammary epithelial cell line HB4a was transfected with either human H-ras cDNA (HB4a r4.2) or the human c-erbB2 cDNA (HB4a c5.2). The HB4a clones were cultured in RPMI containing 10% FBS, insulin (5 μg/ml), hydrocortisone (5 μg/ml), supplemented with the selection agent hygromycin B (50 μg/ml). Cells were harvested using trypsin/EDTA, counted using a haemocytometer, and plated in […] of the appropriate media, at the following densities, in a 96-well tissue culture plate (Falcon 3075): BT474 10,000 cells/well, HN5 3,000 cells/well, N87 10,000 cells/well, HB4a c5.2 3,000 cells/well, HB4a r4.2 3,000 cells/well. The next day, compounds were diluted in DMEM containing […] gentamicin, at twice the final required concentration, from 10 mM stock solutions in DMSO. […] of these dilutions were added to the […] of media currently on the cell plates. Medium containing 0.6% DMSO was added to control wells. Compounds diluted in DMEM were added to all cell lines, including the HB4a r4.2 and HB4a c5.2 cell lines. The final concentration of DMSO in all wells was 0.3%. Cells were incubated at 37° C., 10% CO2 for 3 days. Medium was removed by aspiration. Cell biomass was estimated by staining cells with 100 μl per well methylene blue (Sigma M9140, 0.5% in 50:50 ethanol:water), and incubation at room temperature for at least 30 minutes. Stain was removed, and the plates rinsed under a gentle stream of water, and air-dried. To release stain from the cells 100 μl of solubilization solution was added (1% N-lauroyl sarcosine, Sodium salt, Sigma L5125, in PBS), and plates were shaken gently for about 30 minutes. Optical density at 620 nm was measured on a microplate reader. Percent inhibition of cell growth was calculated relative to vehicle treated control wells. Concentration of compound that inhibits 50% of cell growth (IC50) was interpolated using nonlinear regression (Levenberg-Marquardt) and the equation, y=Vmax*(1−(x/(K+x)))+Y2, where “K” was equal to the IC50.

[2] = tested on: HN5 head and neck tumor cell line; assay: Methylene blue growth inhibition assay, HN5; assay type: cell-based; conditions: Homo sapiens, 72 h; HN5, 3 days; read-out: Cell Proliferation HN5, IC50
Experimental: as §1

[3] = tested on: HB4a r4.2 (HB4a transfected with human H-ras cDNA); assay: Methylene blue growth inhibition assay, HB4a ras; assay type: cell-based; conditions: 72 h, HB4a r4.2, 3 days, read-out: Cell Proliferation HB4a ras, IC50
Experimental: as §1

[4] = tested on: N87 gastric tumor cell line; assay: Methylene blue growth inhibition assay, N87; assay type: cell-based; conditions: Homo sapiens, 72 h; N87, 3 days; read-out: Cell Proliferation N87, IC50
Experimental: as §1

[5] = target: T1, c-erbB-2 (Homo sapiens, UniProt P04626); assay: Substrate phosphorylation assay, erbB2, assay (b) (SPA, 33P-ATP); assay type: biochemical; conditions: Tables 1A and 1B
T1 construct: baculovirus expressed, recombinant constructs of the intracellular domains of c-erbB-2 and c-erbB-4; made in house
Description: The substrate phosphorylation assays use baculovirus expressed, recombinant constructs of the intracellular domains of c-erbB-2 and c-erbB-4 that are constitutively active and EGFr isolated from solubilised A431 cell membranes. The method measures the ability of the isolated enzymes to catalyse the transfer of the g-phosphate from ATP onto tyrosine residues in a biotinylated synthetic peptide (Biotin-[…]. Substrate phosphorylation was detected following either of the following two procedures: a.) c-ErbB-2, c-ErbB4 or EGFr were incubated for 30 minutes, at room temperature, with 10 mM MnCl2, 10 mM ATP, 5 mM peptide, and test compound (diluted from a 5 mM stock in DMSO, final DMSO concentration is 2%) in 40 mM HEPES buffer, pH 7.4. The reaction was stopped by the addition of EDTA (final concentration 0.15 mM) and a sample was transferred to a streptavidin-coated 96-well plate. The plate was washed and the level of phosphotyrosine on the peptide was determined using a Europium-labelled antiphosphotyrosine antibody and quantified with a time-resolved fluorescence technique. b.) ErbB2 was incubated for 50 minutes at room temperature with 15 mM MnCl2, 2 mM ATP, 0.25 mCi [γ-^33P] ATP/well, 5 mM peptide substrate, and test compound (diluted from a 10 mM stock in DMSO, final DMSO concentration is 2%) in 50 mM MOPS pH 7.2. The reaction was terminated by the addition of […] of PBS containing 2.5 mg/ml streptavidin-coated SPA beads (Amersham Inc.), 50 mM ATP, 10 mM EDTA and 0.1% TX-100. The microtitre plates were sealed and SPA beads were allowed to settle for at least six hours. The SPA signal was measured using a Packard Topcount 96-well plate scintillation counter (Packard Instrument Co., Meriden, Conn.).

[6] = tested on: HB4a c5.2 (HB4a transfected with human c-erbB2 cDNA); assay: Methylene blue growth inhibition assay, HB4a erbB2; assay type: cell-based; conditions: 72 h, HB4a c5.2, 3 days, read-out: Cell Proliferation HB4a erbB2, IC50
Experimental: as §1

T1 sequence (P04626 676-1255 limits assumed): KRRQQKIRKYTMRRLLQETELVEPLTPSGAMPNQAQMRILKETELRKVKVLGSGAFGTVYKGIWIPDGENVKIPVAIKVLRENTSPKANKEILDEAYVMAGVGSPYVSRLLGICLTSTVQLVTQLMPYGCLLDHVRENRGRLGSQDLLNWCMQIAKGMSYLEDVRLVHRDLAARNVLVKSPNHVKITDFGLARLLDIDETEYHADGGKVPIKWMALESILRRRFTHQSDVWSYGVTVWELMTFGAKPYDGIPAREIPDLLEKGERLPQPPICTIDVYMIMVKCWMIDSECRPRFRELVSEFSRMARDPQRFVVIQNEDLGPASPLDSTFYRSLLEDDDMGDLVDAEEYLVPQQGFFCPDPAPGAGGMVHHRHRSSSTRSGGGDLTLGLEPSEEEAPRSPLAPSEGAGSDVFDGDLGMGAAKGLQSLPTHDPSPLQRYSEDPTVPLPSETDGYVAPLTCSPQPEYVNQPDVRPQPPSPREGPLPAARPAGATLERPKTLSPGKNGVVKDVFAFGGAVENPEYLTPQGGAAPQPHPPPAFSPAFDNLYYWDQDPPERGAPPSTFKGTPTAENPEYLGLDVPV

SMILES	IC50 [1]	IC50 [2]	IC50 [3]	IC50 [4]	IC50 [5]	IC50 [6]
CS(=O)(=O)CCNCc1nc(-c2ccc3ncnc(Nc4ccc5c(cnn5Cc5cccc(F)c5)c4)c3c2)cs1 [Example 21, N-[1-(3-fluorobenzyl)-1H-indazol-5-yl]-6-[2-({[2-(methanesulphonyl)ethyl]amino}methyl)-1,3-thiazol-4-yl]-4-quinazolinamine]	< 5 µM	< 5 µM	5 to 25 µM	< 5 µM	< 0.1 µM	< 5 µM
CS(=O)(=O)CCNCc1nc(-c2ccc3ncnc(Nc4ccc(OCc5cccc(C(F)(F)F)c5)cc4)c3c2)cs1 [Example 24, 6-[2-({[2-(methanesulphonyl)ethyl]amino}methyl)-1,3-thiazol-4-yl]-N-(4-{[3-(trifluoromethyl)benzyl]oxy}phenyl)-4-quinazolinamine]	5 to 25 µM	< 5 µM	> 50 µM	5 to 25 µM	< 0.1 µM	5 to 25 µM
CS(=O)(=O)CCNCc1ccc(-c2cc3c(Nc4ccc(OCc5ccccc5)cc4)ncnc3cc2F)o1 [Example 34, N-[4-(Benzyloxy)phenyl]-7-fluoro-6-[5-({[2-(methanesulphonyl)ethyl]amino}methyl)-2-furyl]-4-quinazolinamine]	< 5 µM	< 5 µM	> 50 µM	< 5 µM	< 0.1 µM	< 5 µM
CS(=O)(=O)CCNCc1nc(-c2ccc3ncnc(Nc4ccc5c(cnn5Cc5ccccc5)c4)c3c2)cs1 [Example 26, N-(1-benzyl-1H-indazol-5-yl)-6-[2-({[2-(methanesulphonyl)ethyl]amino}methyl)-1,3-thiazol-4-yl]-4-quinazolinamine]	< 5 µM	< 5 µM	5 to 25 µM	< 5 µM	< 0.1 µM	< 5 µM
COc1cc2ncnc(Nc3ccc(OCc4ccccc4)cc3)c2cc1-c1ccc(CNCCS(C)(=O)=O)o1 [Example 10]	< 5 µM	< 5 µM	5 to 25 µM	< 5 µM	< 0.1 µM	< 5 µM
CS(=O)(=O)CCNCc1ccc(-c2ccc3ncnc(Nc4ccc(OCc5cccc(F)c5)c(F)c4)c3c2)o1 [Example 18, N-{3-fluoro-4-[(3-fluorobenzyl)oxy]phenyl}-6-[5-({[2-(methanesulphonyl)ethyl]amino}methyl)-2-furyl]-4-quinazolinamine]	< 5 µM	< 5 µM	5 to 25 µM	< 5 µM	< 0.1 µM	< 5 µM
CS(=O)(=O)CCNCc1ccc(-c2ccc3ncnc(Nc4ccc(OCc5cccc(F)c5)cc4)c3c2)o1 [Example 8, N-{4-[(3-fluorobenzyl)oxy]phenyl}-6-[5-({[2-(methanesulphonyl)ethyl]amino}methyl)-2-furyl]-4-quinazolinamine]	< 5 µM	< 5 µM	5 to 25 µM	< 5 µM	< 0.1 µM	< 5 µM
CS(=O)(=O)CCNCc1ccc(-c2ccc3ncnc(Nc4ccc(OCc5cccc(C(F)(F)F)c5)cc4)c3c2)o1 [Example 17, 6-[5-({[2-(methanesulphonyl)ethyl]amino}methyl)-2-furyl]-N-(4-{[3-(trifluoromethyl)benzyl]oxy}phenyl)-4-quinazolinamine]	< 5 µM	5 to 25 µM	5 to 25 µM	5 to 25 µM	< 0.1 µM	5 to 25 µM
CS(=O)(=O)CCNCc1nc(-c2ccc3ncnc(Nc4ccc(OCc5cccc(Br)c5)cc4)c3c2)cs1 [Example 13, N-{4-[(3-bromobenzyl)oxy]phenyl}-6-[2-({[2-(methanesulphonyl)ethyl]amino}methyl)-1,3-thiazol-4-yl]-4-quinazolinamine]	5 to 25 µM	25 to 50 µM	> 50 µM	5 to 25 µM	0.1 to 1 µM	5 to 25 µM
COc1cc(Nc2ncnc3ccc(-c4ccc(CNCCS(C)(=O)=O)o4)cc23)ccc1OCc1cccc(F)c1 [Example 9, N-{4-[(3-fluorobenzyl)oxy]-3-methoxyphenyl}-6-[5-({[2-(methanesulphonyl)ethyl]amino}methyl)-2-furyl]-4-quinazolinamine]	< 5 µM	< 5 µM	5 to 25 µM	< 5 µM	–	< 5 µM
CS(=O)(=O)CCNCc1ccc(-c2ccc3ncnc(Nc4ccc(OCc5ccccc5)c(F)c4)c3c2)o1 [Example 27]	< 5 µM	< 5 µM	5 to 25 µM	< 5 µM	< 0.1 µM	< 5 µM
CS(=O)(=O)CCNCc1ccoc1-c1ccc2ncnc(Nc3ccc(OCc4ccccc4)cc3)c2c1 [Example 20, N-[4-(benzyloxy)phenyl]-6-[3-({[2-(methanesulphonyl)ethyl]amino}methyl)-2-furyl]-4-quinazolinamine]	< 5 µM	5 to 25 µM	> 50 µM	< 5 µM	< 0.1 µM	< 5 µM
CS(=O)(=O)CCNCc1nc(-c2ccc3ncnc(Nc4ccc(OCc5ccccc5)c(F)c4)c3c2)cs1 [Example 15, N-[4-(benzyloxy)-3-fluorophenyl]-6-[2-({[2-(methanesulphonyl)ethyl]amino}methyl)-1,3-thiazol-4-yl]-4-quinazolinamine]	< 5 µM	< 5 µM	> 50 µM	< 5 µM	< 0.1 µM	< 5 µM
CS(=O)(=O)CCNCc1ccc(-c2cc3c(Nc4ccc5c(cnn5Cc5ccccc5)c4)ncnc3cc2F)o1 [Example 35]	< 5 µM	< 5 µM	25 to 50 µM	< 5 µM	< 0.1 µM	< 5 µM
CS(=O)(=O)CCNCc1nc(-c2ccc3ncnc(Nc4ccc(S(=O)(=O)c5ccccc5)cc4)c3c2)cs1 [Example 23, 6-[2-({[2-(methanesulphonyl)ethyl]amino}methyl)-1,3-thiazol-4-yl]-N-[4-(benzenesulphonyl)phenyl]-4-quinazolinamine]	< 5 µM	< 5 µM	25 to 50 µM	< 5 µM	< 0.1 µM	< 5 µM
CS(=O)(=O)CCNCc1ccc(-c2ccc3ncnc(Nc4ccc(OCc5cccc(F)c5)c(Cl)c4)c3c2)o1 [Example 29, N-{3-Chloro-4-[(3-fluorobenzyl)oxy]phenyl}-6-[5-({[2-(methanesulphonyl)ethyl]amino}methyl)-2-furyl]-4-quinazolinamine]	< 5 µM	< 5 µM	> 50 µM	< 5 µM	–	< 5 µM

Reference: patent publication US7109333B2, “Heterocyclic compounds” (SmithKline Beecham Corporation, priority 1998, dated 2006)
